Columns and labels:
Format in all cases: cell-based
hPPARα = target: T1, hPPARα (Homo sapiens, UniProt Q07869); experiment: Gal4-hPPARα chimera transactivation (luciferase) in COS-7 cells; details: for EC50 / Emax / PPARα TOP % (maximum activation): COS-7 cells, Gal4-hPPARα, 24 hours; for EC50: luciferase, read-out: PPARα EC50; for Emax / PPARα TOP % (maximum activation): relative to maximum activation obtained with fenofibric acid; for Emax: read-out: PPARα TOP % (maximum activation)
T1 construct: corresponding to the DEF domains (structural elements of the promoter of the PPARs: D=hinge, EF=ligand fixation domain and AF2 fixation site); expressed in transfected cells; host or cells: COS-7 (monkey kidney fibroblasts)
T1 sequence (Q07869 239-466 limits assumed): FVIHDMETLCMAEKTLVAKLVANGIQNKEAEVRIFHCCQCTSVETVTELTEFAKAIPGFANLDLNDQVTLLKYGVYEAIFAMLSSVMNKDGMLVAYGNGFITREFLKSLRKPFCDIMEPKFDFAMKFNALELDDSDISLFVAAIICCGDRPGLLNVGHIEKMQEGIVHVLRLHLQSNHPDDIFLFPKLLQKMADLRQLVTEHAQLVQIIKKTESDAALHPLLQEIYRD
Protocol: (§1) Activation of PPARs is evaluated in vitro on a line of monkey kidney fibroblasts (COS-7) by measuring the transcriptional activity of chimeras consisting of the DNA binding domain of Gal4 transcription factor of yeast and of the ligand binding domain of the various PPARs of human origin (hPPAR).
(§2) The COS-7 cells are from ATCC and are cultivated in DMEM medium supplemented with 10% (vol/vol) of fetal calf serum, 1% of penicillin/streptomycin (Biochrom, AG), 1% of amino acids (Gibco) and 1% of sodium pyruvate (Gibco). The cells are incubated at 37° C. in a humid atmosphere containing 5% CO2.
(§3) The plasmids Gal4(RE)_TkpGL3, pGal4-hPPARα, pGal4-hPPARγ, pGal4-hPPARδ and pGal4-φ are described in the literature (Raspe E et al., 1999). The constructs pGal4-hPPARα, pGal4-hPPARγ and pGal4-hPPARδ were obtained by cloning, into the pGal4-φ vector, DNA fragments amplified by PCR corresponding to the DEF domains (structural elements of the promoter of the PPARs: D=hinge, EF=ligand fixation domain and AF2 fixation site) of the human nuclear receptors PPAα, PPARγ and PPARδ.
(§4) The adherent COS-7 cells are transfected with 40 μg of DNA per 225 cm^2 flask, with a pGal4-hPPAR/Gal4(RE)_TkpGL3 ratio of 1/10, in the presence of 10% of fetal calf serum. The cells are then detached and seeded in the absence of serum in 384-well plates (2×10^4 cells/well) then incubated for 4 hours at 37° C. The compounds are then diluted in a 96-well plate and then transferred to the 384-well plate. Activation with the test compounds is effected for a further 24 hours at 37° C. in the presence of 1% of synthetic serum Ultroser™ (Biosepra). These last 2 stages are automated by means of a Genesis Freedom 200™ station (Tecan). At the end of the experiment, the cells are lysed and the luciferase activity is determined using the Steady-Lite™ HTS (Perkin Elmer) according to the supplier's recommendations.
The test data are summarized in Table 8-1 below, which presents, for each compound, the values of maximum activation (TOP %) and the EC50 values measured for each isoform of PPAR. The values of maximum activation are expressed in percentages relative to the maximum activations obtained with reference agonists: fenofibric acid for PPARα, rosiglitazone for PPARγ and 2-methyl-4-((4-methyl-2-(4-trifluoromethylphenyl)-1,3-thiazol-5-yl)-methylsulfanyl)phenoxyacetic acid (also called GW501516) for PPARδ.

hPPARγ = target: T2, hPPARγ (Homo sapiens, UniProt P37231); experiment: Gal4-hPPARγ chimera transactivation (luciferase) in COS-7 cells; details: 24 hours; for EC50: luciferase, read-out: PPARγ EC50; for Emax: read-out: PPARγ TOP % (maximum activation)
T2 construct: corresponding to the DEF domains (structural elements of the promoter of the PPARs: D=hinge, EF=ligand fixation domain and AF2 fixation site); expressed in transfected cells; host or cells: COS-7 (monkey kidney fibroblasts)
T2 sequence (P37231 238-503 limits assumed): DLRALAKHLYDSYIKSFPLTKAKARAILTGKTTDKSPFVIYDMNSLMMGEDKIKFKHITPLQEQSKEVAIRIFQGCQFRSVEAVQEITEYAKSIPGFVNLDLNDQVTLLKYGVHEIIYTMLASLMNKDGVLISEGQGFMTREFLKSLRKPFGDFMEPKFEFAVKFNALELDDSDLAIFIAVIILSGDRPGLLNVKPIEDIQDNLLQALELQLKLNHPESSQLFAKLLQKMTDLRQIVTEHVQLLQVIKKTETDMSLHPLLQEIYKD
Protocol: as §1, §2, §3, §4
(§5) The test data are summarized in Table 8-1 below, which presents, for each compound, the values of maximum activation (TOP %) and the EC50 values measured for each isoform of PPAR.

hPPARδ = target: T3, hPPARδ (Homo sapiens, UniProt Q03181); experiment: Gal4-hPPARδ chimera transactivation (luciferase) in COS-7 cells; details: COS-7 cells, Gal4-hPPARδ, 24 hours; for EC50: luciferase, read-out: PPARδ EC50; for Emax: read-out: PPARδ TOP % (maximum activation)
T3 construct: corresponding to the DEF domains (structural elements of the promoter of the PPARs: D=hinge, EF=ligand fixation domain and AF2 fixation site); expressed in transfected cells; host or cells: COS-7 (monkey kidney fibroblasts)
T3 sequence (Q03181 211-439 limits assumed): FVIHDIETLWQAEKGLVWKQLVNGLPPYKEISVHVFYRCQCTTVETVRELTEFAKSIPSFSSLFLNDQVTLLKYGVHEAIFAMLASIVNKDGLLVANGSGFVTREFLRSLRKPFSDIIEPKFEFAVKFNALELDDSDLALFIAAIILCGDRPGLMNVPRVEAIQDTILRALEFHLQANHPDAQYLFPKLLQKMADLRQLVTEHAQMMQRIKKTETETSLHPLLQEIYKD
Protocol: as §1, §2, §3, §4, §5

[1] = relative to maximum activation obtained with rosiglitazone
[2] = relative to maximum activation obtained with GW501516

EC50 (hPPARα)	Emax (hPPARα)	EC50 (hPPARγ)	Emax (hPPARγ; [1])	EC50 (hPPARδ)	Emax (hPPARδ; [2])	selectivity among hPPAR isoforms (hPPARα) (hPPARα; Gal4-hPPAR chimeras, COS-7)	PPARα TOP % (maximum activation) (hPPARα)	PPARγ TOP % (maximum activation) (hPPARγ; [1])	PPARδ TOP % (maximum activation) (hPPARδ; [2])	Compound
1480 nM	70.4%	2510 nM	66.6%	22800 nM	3.59%					COc1nc(-c2ccccc2)ccc1CNc1ccc(SC(C(=O)O)c2ccccc2)cc1 (stereo not drawn) [Cpd 32, 2-(4-(((2-methoxy-6-phenylpyridin-3-yl)methyl)amino)phenylthio)-2-phenyl-acid]
9 nM	66.8%	583 nM	75.6%	992 nM	99.6%					CCCCCCOc1nc(-c2ccccc2)ccc1COc1ccc(OC(C)(C)C(=O)O)cc1 [Cpd 17, 2-(4-((2-hexyloxy-6-phenylpyridin-3-yl)methoxy)phenoxy)-2-methyl-propanoic acid]
22 nM	86.2%	2450 nM	54.5%	3000 nM	85.7%	high selectivity for hPPARα				COc1nc(-c2ccccc2)ccc1CNc1ccc(SC(C)(C)C(=O)O)cc1 [Cpd 11, 2-(4-(((2-methoxy-6-phenylpyridin-3-yl)methyl)amino)phenylthio)-2-methyl-propanoic acid]
2490 nM		3360 nM		16300 nM			49.52%	62.35%	86.72%	3-(4-(((2-methoxy-6-furylpyridin-3-yl)methyl)amino)phenyl)propanoic acid [Cpd 31]
3240 nM	78.2%	12300 nM	46.6%	1520 nM	96.5%					CCCCCCOc1nc(-c2ccccc2)ccc1COc1ccc(OCC(=O)O)cc1 [Cpd 15, 2-(4-((2-hexyloxy-6-phenylpyridin-3-yl)methoxy)phenoxy)ethanoic acid]
7920 nM	21.9%	12200 nM	13.4%	2110 nM	72.4%					CC(C)(C)Oc1nc(-c2ccccc2)ccc1CNc1ccc(OCC(=O)O)cc1 [Cpd 8]
10800 nM	36.2%	7600 nM	45.4%	6780 nM	64.5%					CCSc1nc(-c2ccccc2)ccc1CNc1ccc(CCC(=O)O)cc1 [Cpd 38, 3-(4-(((2-(ethylthio)-6-phenylpyridin-3-yl)methyl)amino)phenyl)propanoic acid]
622 nM	60%	1940 nM	69.4%	28 nM	107%					COc1ncc(-c2ccc(C(F)(F)F)cc2)cc1CNc1ccc(CCC(=O)O)cc1 [Cpd 46, 3-(4-(((2-methoxy-5-(4-(trifluoromethyl)phenyl)pyridin-3-yl)methyl)amino)phenyl)propanoic acid]
510 nM	78%	5180 nM	70%	3370 nM	85.2%					COc1nc(-c2ccccc2)ccc1CNc1ccc(SCC(=O)O)cc1 [Cpd 16, 2-(4-(((2-methoxy-6-phenylpyridin-3-yl)methyl)amino)phenylthio)ethanoic acid]
1440 nM	44.9%	402 nM	85.6%	1510 nM	77.9%					COc1cc(NCc2ccc(-c3ccccc3)nc2OC)ccc1CCC(=O)O [Cpd 43, 3-(2-methoxy-4-(((2-methoxy-6-phenylpyridin-3-yl)methyl)amino)-phenyl)-propanoic acid]
5660 nM	16.5%	4360 nM	65.8%	3040 nM	86.5%					COc1nc(-c2ccccc2)ccc1CNc1ccc(C(CC(=O)O)c2ccccc2)cc1 (stereo not drawn) [Cpd 42, 3-(4-((2(-methoxy-6-phenylpyridin-3-yl)methyl)amino)phenyl)-3-phenyl-propanoic acid]
12100 nM							38.70%			2-(4-(((2-methoxy-6-furylpyridin-3-yl)methyl)amino)phenylthio)ethanoic acid [Cpd 30]

Source: patent US8461183B2, “PPAR agonist compounds, preparation and uses” (Genfit, priority 2008, dated 2013)
